Source: ChEMBL document CHEMBL1157764, “Conserved high activity binding peptides are involved in adhesion of two detergent-resistant membrane-associated merozoite proteins to red blood cells during invasion” (J Med Chem, 2010)

Species on record: Homo sapiens
Test: Binding affinity to RBC membrane receptor in human RBCs assessed as specific binding activity measured as ratio of specifically bound peptide/added peptide by gamma counter

Compound	Activity [%]
CC(C)[C@H](NC(=O)[C@H](CC(=O)O)NC(=O)[C@H](CC(=O)O)NC(=O)[C@H](CC(=O)O)NC(=O)[C@H](CO)NC(=O)[C@H](CCC(=O)O)NC(=O)[C@H](CC(N)=O)NC(=O)[C@H](CC(=O)O)NC(=O)[C@H](CCC(N)=O)NC(=O)[C@H](CC(N)=O)NC(=O)[C@H](CCCCN)NC(=O)[C@H](CC(N)=O)NC(=O)[C@H](CCC(=O)O)NC(=O)[C@@H](N)CC(=O)O)C(=O)N[C@@H](CC(N)=O)C(=O)N[C@@H](CC(N)=O)C(=O)N[C@@H](CC(N)=O)C(=O)N[C@@H](CC(N)=O)C(=O)N[C@@H](CC(N)=O)C(=O)N[C@@H](CC(N)=O)C(=O)N[C@@H](Cc1ccc(O)cc1)C(=O)N[C@@H](CC(N)=O)C(=O)N[C@@H](CC(N)=O)C(=O)N[C@@H](CC(=O)O)C(=O)N[C@@H](CC(=O)O)C(=O)O	> 2
CC(C)[C@H](NC(=O)[C@H](Cc1cnc[nH]1)NC(=O)[C@@H](NC(=O)[C@H](CCCCN)NC(=O)[C@H](CCC(=O)O)NC(=O)[C@@H](NC(=O)[C@H](CC(N)=O)NC(=O)[C@H](CC(N)=O)NC(=O)[C@H](CCCNC(=N)N)NC(=O)[C@H](Cc1ccccc1)NC(=O)[C@H](C)NC(=O)[C@H](Cc1cnc[nH]1)NC(=O)[C@@H](NC(=O)[C@@H](NC(=O)[C@H](CO)NC(=O)[C@H](CCC(=O)O)NC(=O)[C@H](CC(N)=O)NC(=O)[C@@H](N)CO)C(C)C)[C@@H](C)O)[C@@H](C)O)[C@@H](C)O)C(=O)N[C@@H](Cc1cnc[nH]1)C(=O)N[C@@H](CCCCN)C(=O)N[C@@H](Cc1ccc(O)cc1)C(=O)O	> 2
CC[C@H](C)[C@H](NC(=O)[C@@H](NC(=O)[C@H](CC(=O)O)NC(=O)[C@H](CC(N)=O)NC(=O)[C@H](Cc1cnc[nH]1)NC(=O)[C@@H](NC(=O)[C@H](Cc1ccc(O)cc1)NC(=O)[C@H](CS)NC(=O)[C@@H](N)CCCNC(=N)N)C(C)C)C(C)C)C(=O)N[C@@H](CCCCN)C(=O)N[C@@H](Cc1ccccc1)C(=O)NCC(=O)N[C@@H](CCC(=O)O)C(=O)N[C@@H](CCC(=O)O)C(=O)N[C@@H](CC(N)=O)C(=O)N[C@@H](CO)C(=O)N[C@@H](CC(C)C)C(=O)N[C@@H](CCCCN)C(=O)N[C@@H](CS)C(=O)N[C@@H](CO)C(=O)O	> 2
CC[C@H](C)[C@H](NC(=O)[C@@H](NC(=O)[C@H](Cc1ccc(O)cc1)NC(=O)[C@H](CCC(=O)O)NC(=O)[C@H](CCCCN)NC(=O)[C@H](CCC(=O)O)NC(=O)[C@H](Cc1ccc(O)cc1)NC(=O)[C@H](CO)NC(=O)[C@H](Cc1ccccc1)NC(=O)[C@H](Cc1ccc(O)cc1)NC(=O)[C@H](CO)NC(=O)[C@@H](NC(=O)[C@H](CCSC)NC(=O)[C@H](Cc1ccc(O)cc1)NC(=O)[C@@H](NC(=O)CNC(=O)[C@H](CCCCN)NC(=O)[C@@H]1CCCN1C(=O)[C@@H](N)Cc1ccccc1)[C@@H](C)O)[C@@H](C)O)C(C)C)C(=O)N[C@@H](CO)C(=O)O	> 2
CC[C@H](C)[C@H](NC(=O)[C@@H]1CCCN1C(=O)[C@H](Cc1ccccc1)NC(=O)[C@H](Cc1cnc[nH]1)NC(=O)[C@H](Cc1ccccc1)NC(=O)[C@H](CCC(N)=O)NC(=O)[C@@H](NC(=O)[C@H](CCC(=O)O)NC(=O)[C@@H](NC(=O)[C@H](Cc1ccc(O)cc1)NC(=O)[C@H](CC(=O)O)NC(=O)[C@H](CCC(=O)O)NC(=O)[C@@H](N)CC(C)C)C(C)C)C(C)C)C(=O)N[C@@H](Cc1ccc(O)cc1)C(=O)N[C@@H](Cc1ccc(O)cc1)C(=O)N[C@H](C(=O)N[C@@H](CCCCN)C(=O)N[C@@H](Cc1ccccc1)C(=O)N[C@@H](CC(C)C)C(=O)N[C@@H](Cc1ccc(O)cc1)C(=O)O)[C@H](C)O	> 2
CC[C@H](C)[C@H](NC(=O)[C@H](C)NC(=O)[C@@H](NC(=O)[C@H](Cc1ccccc1)NC(=O)[C@@H](NC(=O)[C@@H](NC(=O)[C@H](CC(N)=O)NC(=O)[C@@H](C)N)[C@@H](C)CC)[C@@H](C)CC)[C@@H](C)CC)C(=O)N[C@H](C(=O)N[C@@H](CO)C(=O)N[C@H](C(=O)N[C@H](C(=O)N[C@@H](CO)C(=O)N[C@@H](CC(C)C)C(=O)N[C@@H](CO)C(=O)N[C@H](C(=O)N[C@@H](CO)C(=O)N[C@@H](CO)C(=O)N[C@@H](Cc1ccccc1)C(=O)N[C@H](C(=O)N[C@@H](Cc1ccc(O)cc1)C(=O)O)[C@@H](C)CC)[C@@H](C)CC)[C@@H](C)CC)[C@@H](C)CC)[C@@H](C)CC	> 2
CC[C@H](C)[C@H](NC(=O)[C@H](CC(=O)O)NC(=O)[C@H](CCCCN)NC(=O)[C@H](CCC(=O)O)NC(=O)[C@H](CC(=O)O)NC(=O)[C@H](CCC(N)=O)NC(=O)[C@@H]1CCCN1C(=O)[C@H](NC(=O)[C@@H](NC(=O)[C@H](CCCCN)NC(=O)[C@H](CC(N)=O)NC(=O)[C@H](NC(=O)[C@H](CCSC)NC(=O)[C@@H](NC(=O)[C@@H](NC(=O)[C@H](CCC(=O)O)NC(=O)[C@H](CCC(N)=O)NC(=O)[C@@H](N)CC(=O)O)[C@@H](C)CC)[C@@H](C)O)[C@@H](C)CC)[C@H](C)O)[C@@H](C)CC)C(=O)N[C@@H](CC(C)C)C(=O)N[C@@H](Cc1ccccc1)C(=O)N[C@@H](Cc1ccc(O)cc1)C(=O)O	> 2
CC[C@H](C)[C@H](NC(=O)[C@H](CC(=O)O)NC(=O)[C@H](CCCCN)NC(=O)[C@H](CCCNC(=N)N)NC(=O)[C@H](Cc1ccccc1)NC(=O)[C@H](CCCNC(=N)N)NC(=O)[C@@H](NC(=O)[C@@H](NC(=O)[C@@H]1CCCN1C(=O)[C@H](CC(C)C)NC(=O)CN)[C@H](C)O)[C@@H](C)CC)C(=O)N[C@@H](CO)C(=O)N[C@H](C(=O)N[C@@H](CCC(=O)O)C(=O)N[C@@H](CC(N)=O)C(=O)N[C@@H](CC(C)C)C(=O)N[C@H](C(=O)N[C@@H](Cc1ccc(O)cc1)C(=O)N[C@@H](CC(C)C)C(=O)N[C@@H](CC(N)=O)C(=O)O)[C@@H](C)O)C(C)C	> 2
CC[C@H](C)[C@H](NC(=O)[C@H](CC(C)C)NC(=O)[C@H](CS)NC(=O)[C@@H](NC(=O)[C@H](CC(C)C)NC(=O)[C@H](Cc1ccccc1)NC(=O)[C@H](CCC(N)=O)NC(=O)[C@H](CC(C)C)NC(=O)[C@H](CC(C)C)NC(=O)[C@H](CC(C)C)NC(=O)[C@@H](NC(=O)[C@H](Cc1cnc[nH]1)NC(=O)[C@H](CC(C)C)NC(=O)[C@@H](NC(=O)[C@H](Cc1ccccc1)NC(=O)[C@H](Cc1ccccc1)NC(=O)[C@@H]1CCCN1C(=O)[C@@H](NC(=O)[C@H](CCCCN)NC(=O)[C@@H](N)CCSC)[C@@H](C)CC)[C@@H](C)CC)[C@@H](C)CC)[C@@H](C)CC)C(=O)N[C@@H](Cc1ccc(O)cc1)C(=O)O	> 2
CC[C@H](C)[C@H](NC(=O)[C@H](CC(N)=O)NC(=O)[C@@H](NC(=O)[C@H](CC(N)=O)NC(=O)CNC(=O)[C@H](CC(=O)O)NC(=O)[C@H](CCCCN)NC(=O)[C@@H](NC(=O)[C@@H](NC(=O)[C@@H](NC(=O)[C@@H]1CCCN1C(=O)[C@H](CCC(=O)O)NC(=O)[C@H](CCC(=O)O)NC(=O)[C@H](CC(N)=O)NC(=O)[C@@H](N)CCCCN)C(C)C)[C@@H](C)CC)C(C)C)[C@@H](C)CC)C(=O)N[C@@H](CCCCN)C(=O)N[C@@H](CO)C(=O)N[C@@H](C)C(=O)N[C@@H](CC(C)C)C(=O)N[C@@H](CC(C)C)C(=O)N[C@@H](Cc1ccc(O)cc1)C(=O)O	> 2
CC[C@H](C)[C@H](NC(=O)[C@H](CCCCN)NC(=O)[C@@H](NC(=O)[C@H](Cc1ccc(O)cc1)NC(=O)CNC(=O)[C@H](CCC(=O)O)NC(=O)[C@H](CC(=O)O)NC(=O)[C@H](CO)NC(=O)[C@H](Cc1ccc(O)cc1)NC(=O)[C@H](CC(C)C)NC(=O)[C@H](CC(N)=O)NC(=O)[C@H](CCSC)NC(=O)[C@@H](NC(=O)[C@H](CCC(C)=O)NC(=O)[C@H](CC(N)=O)NC(=O)[C@H](CCCCN)NC(=O)[C@@H](N)Cc1c[nH]c2ccccc12)C(C)C)[C@@H](C)O)C(=O)N[C@@H](CC(N)=O)C(=O)N[C@H](C(=O)N[C@@H](CC(C)C)C(=O)O)[C@@H](C)O	> 2
CC[C@H](C)[C@H](NC(=O)[C@H](CCCCN)NC(=O)[C@H](CCCNC(=N)N)NC(=O)[C@@H]1CCCN1C(=O)[C@@H](NC(=O)[C@@H](NC(=O)[C@H](CCCCN)NC(=O)[C@@H](NC(=O)[C@H](CCCCN)NC(=O)[C@@H](NC(=O)[C@@H](NC(=O)[C@@H](N)Cc1ccc(O)cc1)C(C)C)[C@@H](C)CC)[C@@H](C)CC)[C@@H](C)O)C(C)C)C(=O)N[C@@H](CCC(N)=O)C(=O)N[C@@H](CS)C(=O)N[C@@H](CCC(=O)O)C(=O)N[C@@H](CC(C)C)C(=O)N[C@@H](CC(N)=O)C(=O)N[C@H](C(=O)N[C@@H](CC(N)=O)C(=O)N[C@@H](CC(=O)O)C(=O)O)[C@@H](C)O	> 2
CC[C@H](C)[C@H](NC(=O)[C@H](CO)NC(=O)[C@H](CCCNC(=N)N)NC(=O)[C@@H](NC(=O)[C@@H](NC(=O)[C@@H](N)CCC(N)=O)[C@@H](C)O)[C@@H](C)CC)C(=O)N[C@@H](C(=O)N[C@@H](CC(C)C)C(=O)N[C@@H](CC(C)C)C(=O)N[C@@H](CS)C(=O)N[C@@H](CO)C(=O)N[C@@H](CC(N)=O)C(=O)N[C@@H](CC(C)C)C(=O)N[C@@H](Cc1cnc[nH]1)C(=O)N[C@@H](CC(=O)O)C(=O)N[C@@H](Cc1c[nH]c2ccccc12)C(=O)N[C@@H](CCCCN)C(=O)N[C@@H](CC(C)C)C(=O)N[C@@H](Cc1ccccc1)C(=O)N[C@@H](CS)C(=O)N[C@@H](Cc1ccc(O)cc1)C(=O)O)[C@@H](C)CC	> 2
CC[C@H](C)[C@H](NC(=O)[C@H](Cc1ccc(O)cc1)NC(=O)[C@@H](N)CC(N)=O)C(=O)N[C@@H](CCC(=O)O)C(=O)N[C@@H](CCC(=O)O)C(=O)N1CCC[C@H]1C(=O)N[C@@H](Cc1ccccc1)C(=O)N[C@@H](CO)C(=O)N[C@H](C(=O)N[C@H](C(=O)N[C@@H](Cc1ccccc1)C(=O)N[C@H](C(=O)N[C@H](C(=O)N[C@@H](CC(C)C)C(=O)N[C@@H](CCC(N)=O)C(=O)N[C@H](C(=O)N[C@@H](CCC(N)=O)C(=O)N[C@@H](CCSC)C(=O)N[C@@H](CC(N)=O)C(=O)O)[C@@H](C)O)[C@@H](C)CC)[C@@H](C)O)[C@@H](C)O)[C@@H](C)O	> 2
CC[C@H](NC(=O)[C@H](CC(C)C)NC(=O)[C@H](CCCCN)NC(=O)[C@H](CC(N)=O)NC(=O)[C@H](CC(N)=O)NC(=O)[C@H](Cc1ccc(O)cc1)NC(=O)[C@@H](NC(=O)[C@H](Cc1ccc(O)cc1)NC(=O)[C@H](CCCCN)NC(=O)[C@H](Cc1ccc(O)cc1)NC(=O)[C@@H](NC(=O)[C@H](Cc1ccc(O)cc1)NC(=O)[C@@H](NC(=O)[C@H](Cc1ccc(O)cc1)NC(=O)[C@@H](NC(=O)[C@H](CCCCN)NC(=O)[C@H](CC(N)=O)NC(=O)[C@@H](NC(=O)[C@@H](N)[C@@H](C)O)C(C)C)[C@@H](C)CC)[C@@H](C)O)[C@@H](C)O)[C@@H](C)CC)C(=O)N[C@@H](C)C(=O)O	> 2
